Test results published in the supplement of paper PMC10307832.

Assays:
Test in all cases: relative viability (nuclei count vs DMSO), 5 days (fraction); higher = more cells survive
[1] = tested on: 201T
Method in brief: (§1)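 Relative viability equals treated-well nuclei counts divided by vehicle-well nuclei counts. Counts came from 4× images of lung cancer cell lines grown in 1536-well plates for 5 days after pin-tool dosing on the day after seeding. Dosing used one drug alone or a fixed anchor-drug dose plus five library-drug doses (not always all listed) in √10 steps, and values are medians of duplicate plates.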

[2] = tested on: A-427
Method in brief: as §1

[3] = tested on: ABC-1
Method in brief: as §1

[4] = tested on: BEN
Method in brief: as §1

[5] = tested on: CAL-12T
Method in brief: as §1

[6] = tested on: H3255
Method in brief: as §1

[7] = tested on: HCC-15
Method in brief: as §1

[8] = tested on: LC-2-ad
Method in brief: as §1

[9] = tested on: LCLC-97TM1
Method in brief: as §1

[10] = tested on: NCI-H1650
Method in brief: as §1

[11] = tested on: NCI-H1651
Method in brief: as §1

[12] = tested on: NCI-H1915
Method in brief: as §1

[13] = tested on: NCI-H1944
Method in brief: as §1

[14] = tested on: NCI-H2023
Method in brief: as §1

[15] = tested on: NCI-H2087
Method in brief: as §1

[16] = tested on: NCI-H441
Method in brief: as §1

[17] = tested on: NCI-H460
Method in brief: as §1

[18] = tested on: NCI-H520
Method in brief: as §1

[19] = tested on: NCI-H596
Method in brief: as §1

[20] = tested on: NCI-H650
Method in brief: as §1

[21] = tested on: NCI-H661
Method in brief: as §1

[22] = tested on: NCI-H727
Method in brief: as §1

[23] = tested on: PC-3 [JPC-3]
Method in brief: as §1

For `Clc1ccc(Nc2nnc(Cc3ccncc3)c3ccccc23)cc1` [Vatalanib] + O=C(CCCCCCC(=O)Nc1ccccc1)NO [Vorinostat] (partner 1 µM), the relative viability ([1]; first compound 0.04 µM) was 0.995, the relative viability ([1]; first compound 0.1265 µM) was 1.01 and the relative viability ([1]; first compound 0.4 µM) was 1.06. It also gave a relative viability ([1]; first compound 1.265 µM) of 1.01, a relative viability ([1]; first compound 4 µM) of 1.07 and a relative viability ([2]; first compound 0.04 µM) of 0.874. The relative viability ([2]; first compound 0.1265 µM) was 0.852, the relative viability ([2]; first compound 0.4 µM) was 0.945 and the relative viability ([2]; first compound 4 µM) was 0.83. The relative viability ([3]; first compound 0.04 µM) was 1.06, the relative viability ([3]; first compound 0.1265 µM) was 0.863 and the relative viability ([3]; first compound 0.4 µM) was 1.01. The relative viability ([3]; first compound 4 µM) was 1.39, the relative viability ([4]; first compound 0.04 µM) was 0.57 and the relative viability ([4]; first compound 0.1265 µM) was 0.625. It also gave a relative viability ([4]; first compound 0.4 µM) of 0.594, a relative viability ([4]; first compound 1.265 µM) of 0.561 and a relative viability ([4]; first compound 4 µM) of 0.61. The relative viability ([5]; first compound 0.04 µM) was 0.872, the relative viability ([5]; first compound 0.1265 µM) was 0.714 and the relative viability ([5]; first compound 0.4 µM) was 0.734. For the same molecule, the relative viability ([5]; first compound 1.265 µM) was 0.737, the relative viability ([5]; first compound 4 µM) was 0.784 and the relative viability ([6]; first compound 0.04 µM) was 0.744. The relative viability ([6]; first compound 0.1265 µM) was 0.832, the relative viability ([6]; first compound 0.4 µM) was 0.714 and the relative viability ([6]; first compound 1.265 µM) was 0.746. It also gave a relative viability ([6]; first compound 4 µM) of 0.689, a relative viability ([7]; first compound 0.04 µM) of 0.853 and a relative viability ([7]; first compound 0.1265 µM) of 0.836. For the same molecule, the relative viability ([7]; first compound 0.4 µM) was 0.964, the relative viability ([7]; first compound 1.265 µM) was 0.801 and the relative viability ([7]; first compound 4 µM) was 0.863. For the same molecule, the relative viability ([8]; first compound 0.04 µM) was 0.695, the relative viability ([8]; first compound 0.1265 µM) was 0.743 and the relative viability ([8]; first compound 0.4 µM) was 0.768. The relative viability ([8]; first compound 1.265 µM) was 0.682, the relative viability ([8]; first compound 4 µM) was 0.676 and the relative viability ([9]; first compound 0.04 µM) was 0.601. The relative viability ([9]; first compound 0.1265 µM) was 0.613, the relative viability ([9]; first compound 0.4 µM) was 0.804 and the relative viability ([9]; first compound 1.265 µM) was 0.65. For the same molecule, the relative viability ([9]; first compound 4 µM) was 0.649, the relative viability ([10]; first compound 0.04 µM) was 0.555 and the relative viability ([10]; first compound 0.1265 µM) was 0.517. For the same molecule, the relative viability ([10]; first compound 0.4 µM) was 0.616, the relative viability ([10]; first compound 1.265 µM) was 0.473 and the relative viability ([10]; first compound 4 µM) was 0.534. The relative viability ([11]; first compound 0.04 µM) was 0.506, the relative viability ([11]; first compound 0.1265 µM) was 0.606 and the relative viability ([11]; first compound 0.4 µM) was 0.594. The relative viability ([11]; first compound 1.265 µM) was 0.524, the relative viability ([11]; first compound 4 µM) was 0.557 and the relative viability ([12]; first compound 0.04 µM) was 0.507. The relative viability ([12]; first compound 0.1265 µM) was 0.544, the relative viability ([12]; first compound 0.4 µM) was 0.587 and the relative viability ([12]; first compound 1.265 µM) was 0.482. The relative viability ([12]; first compound 4 µM) was 0.518, the relative viability ([13]; first compound 0.04 µM) was 0.546 and the relative viability ([13]; first compound 0.1265 µM) was 0.523. The relative viability ([13]; first compound 0.4 µM) was 0.676, the relative viability ([13]; first compound 1.265 µM) was 0.529 and the relative viability ([13]; first compound 4 µM) was 0.526. For the same molecule, the relative viability ([14]; first compound 0.04 µM) was 0.674, the relative viability ([14]; first compound 0.1265 µM) was 0.688 and the relative viability ([14]; first compound 0.4 µM) was 0.716. It also gave a relative viability ([14]; first compound 1.265 µM) of 0.5, a relative viability ([14]; first compound 4 µM) of 0.628 and a relative viability ([15]; first compound 0.04 µM) of 0.836. The relative viability ([15]; first compound 0.1265 µM) was 0.6, the relative viability ([15]; first compound 0.4 µM) was 0.595 and the relative viability ([15]; first compound 1.265 µM) was 0.701. The relative viability ([15]; first compound 4 µM) was 0.533, the relative viability ([16]; first compound 0.04 µM) was 0.907 and the relative viability ([16]; first compound 0.1265 µM) was 0.589. For the same molecule, the relative viability ([16]; first compound 0.4 µM) was 0.704, the relative viability ([16]; first compound 1.265 µM) was 0.776 and the relative viability ([16]; first compound 4 µM) was 0.81. It also gave a relative viability ([17]; first compound 0.04 µM) of 0.859, a relative viability ([17]; first compound 0.1265 µM) of 0.636 and a relative viability ([17]; first compound 0.4 µM) of 0.765. For the same molecule, the relative viability ([17]; first compound 1.265 µM) was 0.702, the relative viability ([17]; first compound 4 µM) was 0.61 and the relative viability ([18]; first compound 0.04 µM) was 0.621. The relative viability ([18]; first compound 0.1265 µM) was 0.642, the relative viability ([18]; first compound 0.4 µM) was 0.817 and the relative viability ([18]; first compound 1.265 µM) was 0.661. The relative viability ([18]; first compound 4 µM) was 0.718, the relative viability ([19]; first compound 0.04 µM) was 0.603 and the relative viability ([19]; first compound 0.1265 µM) was 0.542. It also gave a relative viability ([19]; first compound 0.4 µM) of 0.672, a relative viability ([19]; first compound 1.265 µM) of 0.583 and a relative viability ([19]; first compound 4 µM) of 0.608. The relative viability ([20]; first compound 0.04 µM) was 0.397, the relative viability ([20]; first compound 0.1265 µM) was 0.496 and the relative viability ([20]; first compound 0.4 µM) was 0.453. It also gave a relative viability ([20]; first compound 1.265 µM) of 0.414, a relative viability ([20]; first compound 4 µM) of 0.443 and a relative viability ([21]; first compound 0.04 µM) of 0.8. For the same molecule, the relative viability ([21]; first compound 0.1265 µM) was 0.872, the relative viability ([21]; first compound 0.4 µM) was 0.778 and the relative viability ([21]; first compound 1.265 µM) was 0.775. For the same molecule, the relative viability ([21]; first compound 4 µM) was 0.805, the relative viability ([22]; first compound 0.1265 µM) was 1.28 and the relative viability ([22]; first compound 0.4 µM) was 1.17. It also gave a relative viability ([22]; first compound 1.265 µM) of 1.1, a relative viability ([22]; first compound 4 µM) of 1.17 and a relative viability ([23]; first compound 0.04 µM) of 0.837. For the same molecule, the relative viability ([23]; first compound 0.1265 µM) was 0.736, the relative viability ([23]; first compound 0.4 µM) was 0.721 and the relative viability ([23]; first compound 1.265 µM) was 0.342. The relative viability ([23]; first compound 4 µM) was 0.688.
